Source: patent publication US20100311748A1, “HETEROCYCLIC AMIDES USEFUL FOR THE TREATMENT OF CANCER AND PSORIASIS” (ASTRAZENECA AB, priority 2007, published 2010)

System: Hedgehog pathway
Experiment: Hedgehog Pathway Cellular Differentiation Assay (alkaline phosphatase production in C3H10T1/2 cells with Shh ligand)
Type: cell-based
Settings: Shh ligand conditioned media, 72 h, alkaline phosphatase; for inhibition at 3 µM: Mus musculus, C3H 10T1/2, 3 μM compound; for % Inhibition at 3 μM: 3 μM compound
Method in brief: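 C3H10T1/2 cells in DMEM/2% FBS with Shh-conditioned medium were treated 72 h with compound, threefold dilutions from 30 μM to 3 nM. After RIPA lysis, alkaline phosphatase was read with pNp (1 mg/mL, diethanolamine pH 9.8) at 30 °C, absorbance 405 nm. Percent inhibition and IC50 came from absorbance.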

Cc1ccc(-c2ncc[nH]2)cc1NC(=O)c1ccc(C(F)(F)F)nc1C [Example 147, N-[5-(1H-imidazol-2-yl)-2-methyl-phenyl]-2-methyl-6-(trifluoromethyl)pyridine-3-carboxamide]
inhibition at 3 µM: 19.3%

Cc1ccc(-c2ncc[nH]2)cc1NC(=O)c1cccc(N(C)C)c1 [Example 148, 3-dimethylamino-N-[5-(1H-imidazol-2-yl)-2-methyl-phenyl]benzamide]
inhibition at 3 µM: 9.1%

Cc1ccc(-c2ncc[nH]2)cc1NC(=O)c1ccc2c(c1)OCCN2C [Example 149, N-[5-(1H-imidazol-2-yl)-2-methyl-phenyl]-2-methyl-5-oxa-2-azabicyclo[4.4.0]deca-7,9,11-triene-8-carboxamide]
% Inhibition at 3 μM: 63.4%

Cc1ccc(-c2ncc[nH]2)cc1NC(=O)c1ccc(C(F)(F)F)nc1 [Example 150, N-[5-(1H-imidazol-2-yl)-2-methyl-phenyl]-6-(trifluoromethyl)pyridine-3-carboxamide]
inhibition at 3 µM: 19.4%

Cc1ccc(-c2ncc[nH]2)cc1NC(=O)c1ccc2c(c1)OCCO2 [Example 151, N-[5-(1H-imidazol-2-yl)-2-methyl-phenyl]-2,5-dioxabicyclo[4.4.0]deca-7,9,11-triene-8-carboxamide]
% Inhibition at 3 μM: 21.9%

Cc1ccc(-c2ncc[nH]2)cc1NC(=O)c1cccc(Cl)c1 [Example 152, 3-chloro-N-[5-(1H-imidazol-2-yl)-2-methyl-phenyl]benzamide]
inhibition at 3 µM: 45.3%

Cc1ccc(-c2ncc[nH]2)cc1NC(=O)c1ccc(N2CCOCC2)nc1 [Example 153, N-[5-(1H-imidazol-2-yl)-2-methyl-phenyl]-6-morpholin-4-yl-pyridine-3-carboxamide]
inhibition at 3 µM: 53.7%

COc1ccc(C(=O)Nc2cc(-c3ncc[nH]3)ccc2C)cc1OC [Example 154, N-[5-(1H-imidazol-2-yl)-2-methyl-phenyl]-3,4-dimethoxy-benzamide]
inhibition at 3 µM: 17.6%

Cc1ccc(-c2ncc[nH]2)cc1NC(=O)c1ccc(OCc2ccc(N3CCN(C)CC3)cn2)cc1 [Example 155, N-[5-(1H-imidazol-2-yl)-2-methylphenyl]-4-{[5-(4-methylpiperazin-1-yl)pyridin-2-yl]methoxy}benzamide]
inhibition at 3 µM: 83.3%

Cc1ccc(-c2cn(C)c(C)n2)cc1NC(=O)c1ccc(OCc2ccccn2)cc1 [Example 156, N-[5-(1,2-dimethyl-1H-imidazol-4-yl)-2-methylphenyl]-4-(pyridin-2-ylmethoxy)benzamide]
inhibition at 3 µM: 86.2%
